Where two headings read alike, the source gives them in different places.

The term IC50 denotes the point on the concentration scale where inhibition reaches its midpoint.

One assay concerns the target human CB2 receptor (Homo sapiens, UniProt P34972). The experiment in a line: Binding assay, cannabinoid CB2 receptor ([3H]-CP-55,940 displacement). The conditions noted are these: SK-N-MC cell membranes, radioligand CP-55,940 0.2 nM. The method, boiled down:
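Membranes from SK-N-MC cells stably expressing human CB2, incubated with test compound and 0.2 nM [3H]-CP-55,940 for 90 min at 30 °C in Tris buffer pH 7.5 with fatty-acid-free BSA. Nonspecific binding defined with 10 uM WIN 55,212; filtration and scintillation counting, IC50 by linear regression.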

For a further assay, the target named is T1, human CB1 receptor (Homo sapiens, UniProt P21554).
T1 construct: expressed in transfected cells; host or cells: SK-N-MC cells, stably transfected with pcDNA3 CB-1 (human); semi-purified membrane pellet
T1 sequence (P21554 whole entry): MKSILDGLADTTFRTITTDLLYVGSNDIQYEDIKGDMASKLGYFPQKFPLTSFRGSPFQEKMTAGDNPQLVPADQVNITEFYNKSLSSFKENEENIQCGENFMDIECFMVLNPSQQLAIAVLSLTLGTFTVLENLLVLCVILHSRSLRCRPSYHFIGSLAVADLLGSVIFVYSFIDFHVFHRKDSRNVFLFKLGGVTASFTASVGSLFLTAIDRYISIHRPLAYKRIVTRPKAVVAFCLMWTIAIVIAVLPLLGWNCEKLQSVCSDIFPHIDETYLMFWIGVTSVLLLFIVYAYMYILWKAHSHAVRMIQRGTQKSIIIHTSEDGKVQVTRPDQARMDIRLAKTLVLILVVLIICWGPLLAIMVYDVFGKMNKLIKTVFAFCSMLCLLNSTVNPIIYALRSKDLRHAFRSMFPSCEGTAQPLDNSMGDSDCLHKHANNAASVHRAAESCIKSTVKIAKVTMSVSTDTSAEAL
The experiment in a line: biochemical. In kind it is binding. Put shortly:
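Membranes from SK-N-MC cells stably expressing human CB1, incubated 90 minutes at 30° C in Tris-HCl buffer with MgCl2, EDTA and fatty acid free BSA, pH 7.5. Bound counts collected by filtration and scintillation counting; IC50 from linear regression over varying compound concentrations.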

The mark [1] stands for this setting: Cannabinoid CB2 Receptor Binding IC50, human CB2 receptor.
Setting [2] is: human CB1 receptor, SK-N-MC cell membranes, radioligand CP-55,940 0.2 nM, read-out: Cannabinoid CB1 Receptor Binding IC50.

Chain of human CB2 receptor (P34972 whole entry): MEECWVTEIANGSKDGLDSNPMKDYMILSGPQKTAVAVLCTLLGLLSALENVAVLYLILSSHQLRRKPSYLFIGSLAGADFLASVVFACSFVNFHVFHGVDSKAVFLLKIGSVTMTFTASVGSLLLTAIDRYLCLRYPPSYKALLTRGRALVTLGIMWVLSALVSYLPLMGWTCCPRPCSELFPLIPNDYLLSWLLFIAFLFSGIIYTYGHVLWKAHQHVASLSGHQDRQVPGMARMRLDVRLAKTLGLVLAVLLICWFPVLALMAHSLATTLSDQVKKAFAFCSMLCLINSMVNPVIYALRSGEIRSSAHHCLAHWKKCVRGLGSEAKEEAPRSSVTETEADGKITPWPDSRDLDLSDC

Take `CC12CCC(C1)C(C)(C)[C@H]2NC(=O)c1nn(-c2ccc(F)cc2)c2c1CCCC2` (stereo partly shown) [compound 202]: the results for the IC50 on human CB2 receptor (setting [1]) and at human CB1 receptor were 4.5 nM and 115 nM, respectively.
Consider `CCN(C(=O)c1nn(C2CCCCC2)c2c1CCCC2)[C@H](C)C1CCCCC1` [compound 203], for which the results for the IC50 on human CB2 receptor (setting [1]) and at human CB1 receptor were 240 nM and 590 nM, respectively.
For the compound `CC[C@@H](NC(=O)c1nn(C2CCCCC2)c2c1CCCC2)c1ccccc1` [compound 204], the IC50 at human CB2 receptor (setting [1]) was determined as 10 nM; at human CB1 receptor it was 800 nM.
For the compound `CC12CCC(C1)C(C)(C)C2NC(=O)Nc1nn(C2CCCCC2)c2c1CCCC2` (stereo not shown) [compound 205], the figures for the IC50 on human CB2 receptor (setting [1]) and against human CB1 receptor were 70 nM and 1580 nM, respectively.
`CCOC(=O)[C@@H]1C2C=CC(C2)[C@@H]1NC(=O)c1nn(Cc2ccccc2)c2c1CCCC2` (stereo partly shown) [compound 206]: the IC50 on human CB2 receptor (setting [1]) was 14.1 nM; against human CB1 receptor it was 97 nM.
For `CCOC(=O)[C@H]1CCc2c(c(C(=O)NC3C4CC5CC(C4)CC3C5)nn2Cc2ccccc2)C1` (stereo partly shown) [compound 210], in that order: 8 nM and 335 nM.
`C[C@H](NC(=O)c1nn(C2CCCCC2)c2c1CCCC2)C12CC3CC(CC(C3)C1)C2` [compound 213]: the figures for the IC50 at human CB2 receptor (setting [1]) and against human CB1 receptor were 200 nM and 950 nM, respectively.
`C[C@@H]1[C@@H](NC(=O)c2nn(C3CCCCC3)c3c2CCCC3)C[C@H]2C[C@@H]1C2(C)C` [compound 216]: the IC50 at human CB2 receptor (setting [1]) was 70 nM; at human CB1 receptor, 2800 nM.
As to `CCOC(=O)C1CCc2nn(C3CCCCC3)c(C(=O)NC3C4CC5CC(C4)CC3C5)c2C1` (stereo not shown) [compound 221], the values for the IC50 at human CB2 receptor (setting [1]) and against human CB1 receptor were 460 nM and 3290 nM, respectively.
For `CC(NC(=O)c1nn(C2CCCCC2)c2c1CC(C(N)=O)CC2)C12CC3CC(CC(C3)C1)C2` (stereo not shown) [compound 224], in that order: 1200 nM and 1500 nM.
As to `CCOC(=O)C1CCc2nn(Cc3ccccc3)c(C(=O)NC34CC5CC(CC3C5)C4)c2C1` (stereo not shown) [compound 227], the IC50 turned out to be 1150 nM at human CB2 receptor (setting [1]) and 2770 nM on human CB1 receptor.
For `CCOC(=O)C1CCc2c(C(=O)NC3C4CC5CC(C4)CC3C5)nn(Cc3ccccc3)c2C1` (stereo not shown) [compound 230], in that order: 1 nM and 10 nM.
As to `CC(C)(C)OC(=O)C1CCc2c(c(C(=O)NC3C4CC5CC(C4)CC3C5)nn2C2CCCCC2)C1` (stereo not shown) [compound 233], the half-maximal inhibitory concentration (IC50) on human CB2 receptor (setting [1]) turned out to be 880 nM; against human CB1 receptor it was 1600 nM.
For the compound `CCC(NC(=O)c1nn(C2CCCCC2)c2c1CCCC2)C1CCCCC1` (stereo not shown) [compound 234], the IC50 at human CB2 receptor (setting [1]) came out at 10 nM; on human CB1 receptor, 230 nM.
With `CN(C)C(=O)C1CCc2c(c(C(=O)NC3C4(C)CCC(C4)C3(C)C)nn2C2CCCCC2)C1` (stereo not shown) [compound 235], the IC50 on human CB2 receptor (setting [1]) was found to be 1400 nM; at human CB1 receptor, 3600 nM.
Regarding `COc1ccccc1CCNC(=O)c1nn(C2CCCCC2)c2c1CCCC2` [compound 236], the figures for the IC50 on human CB2 receptor (setting [1]) and on human CB1 receptor were 940 nM and 25400 nM, respectively.
The corresponding values for `COc1ccccc1CCNC(=O)c1nn(Cc2ccccc2)c2c1CCCC2` [compound 237] are 151 nM and 890 nM.
As to `COc1ccccc1CCNC(=O)c1nn(-c2ccccc2)c2c1CCCC2` [compound 238], the IC50 on human CB2 receptor (human CB2 receptor, read-out: Cannabinoid CB2 Receptor Binding IC50) was 3720 nM; at human CB1 receptor (setting [2]), 25100 nM.
On to `CC(c1ccccc1)n1nc(C(=O)NCC2CCCCC2)c2c1CCCC2` (stereo not shown) [compound 242], for which the half-maximal inhibitory concentration (IC50) at human CB2 receptor (setting [1]) worked out at 1600 nM; on human CB1 receptor, 300 nM.
Consider `CC(c1ccccc1)n1nc(C(=O)NC2C3CC4CC(C3)CC2C4)c2c1CCCC2` (stereo not shown) [compound 243], for which the IC50 on human CB2 receptor (setting [1]) is 4 nM; on human CB1 receptor, 130 nM.
`CC(c1ccccc1)n1nc(C(=O)NC23CC4CC(CC(C4)C2)C3)c2c1CCCC2` (stereo not shown) [compound 244]: the concentration for half-maximal inhibition (IC50) on human CB2 receptor (setting [1]) was 79 nM; against human CB1 receptor it was 300 nM.
The corresponding values for `CC1CCCCC1NC(=O)c1nn(C2CCCCC2)c2c1CCCC2` (stereo not shown) [compound 245] are 2 nM and 20 nM.
On to `CC(NC(=O)c1nn(C2CCCCC2)c2c1CCCC2)C1CCCCCC1` (stereo not shown) [compound 246], for which the results for the IC50 at human CB2 receptor (setting [1]) and at human CB1 receptor were 90 nM and 2270 nM, respectively.
Consider `CC(NC(=O)c1nn(C2CCCCC2)c2c1CCCC2)C1CCC1` (stereo not shown) [compound 247], for which the IC50 on human CB2 receptor (setting [1]) stood at 47 nM; against human CB1 receptor, 260 nM.
Regarding `CC(NC(=O)c1nn(C2CCCCC2)c2c1CCCC2)[C@H]1CC[C@H](C)CC1` (stereo partly shown) [compound 248], the IC50 on human CB2 receptor (setting [1]) was 20 nM; at human CB1 receptor (setting [2]), 160 nM.
`CC(c1ccccc1)n1nc(C(=O)NC2C3(C)CCC(C3)C2(C)C)c2c1CCCC2` (stereo not shown) [compound 250]: the results for the IC50 at human CB2 receptor (setting [1]) and on human CB1 receptor were 5.6 nM and 70 nM, respectively.
In the case of `C[C@H]1C(NC(=O)c2nn(C3CCCCC3)c3c2CCCC3)C[C@@H]2C[C@H]1C2(C)C` (stereo partly shown) [compound 252], the IC50 on human CB2 receptor (setting [1]) amounted to 48 nM; on human CB1 receptor, 40 nM.
For `CC12CCC(C1)C(C)(C)C2NC(=O)c1nn(Cc2ccccc2)c2c1CCCC2c1ccccc1` (stereo not shown) [compound 265], in that order: 41 nM and 96 nM.
On to `CC(NC(=O)c1nn(Cc2ccccc2)c2c1CCCC2c1ccccc1)C1CCCCC1` (stereo not shown) [compound 267], for which the IC50 at human CB2 receptor (setting [1]) stood at 270 nM; against human CB1 receptor, 150 nM.
Turning to `CCOC(=O)[C@@H]1CCCC[C@H]1NC(=O)c1nn(C2CCCCC2)c2c1CCCC2` [compound 269], the IC50 on human CB2 receptor (setting [1]) was 38.6 nM; at human CB1 receptor, 191 nM.
`CCOC(=O)[C@@H]1CCCC[C@@H]1NC(=O)c1c2c(nn1Cc1ccccc1)CCCC2` [compound 270]: the IC50 on human CB2 receptor (setting [1]) worked out at 1800 nM; against human CB1 receptor it was 3100 nM.
As to `CCOC(=O)[C@H]1CCCC[C@@H]1NC(=O)c1c2c(nn1Cc1ccccc1)CCCC2` [compound 271], the IC50 at human CB2 receptor (setting [1]) turned out to be 2600 nM; against human CB1 receptor, 6200 nM.
For `CCOC(=O)[C@@H]1CCCC[C@H]1NC(=O)c1nn(Cc2ccccc2)c2c1CCCC2` [compound 272], the IC50 on human CB2 receptor (setting [1]) stood at 70 nM; on human CB1 receptor, 86 nM.
For `CCOC(=O)[C@@H]1C2CCC(C2)[C@@H]1NC(=O)c1c2c(nn1Cc1ccccc1)CCCC2` (stereo partly shown) [compound 273], the figures for the IC50 at human CB2 receptor (setting [1]) and at human CB1 receptor were 414 nM and 1590 nM, respectively.
`CCOC(=O)[C@@H]1C2CCC(C2)[C@@H]1NC(=O)c1nn(Cc2ccccc2)c2c1CCCC2` (stereo partly shown) [compound 274]: the IC50 was 1.6 nM at human CB2 receptor (setting [1]) and 18.7 nM against human CB1 receptor.
Regarding `CCOC(=O)[C@H]1C2C=CC(C2)[C@H]1NC(=O)c1c2c(nn1Cc1ccccc1)CCCC2` (stereo partly shown) [compound 275], the IC50 turned out to be 1300 nM on human CB2 receptor (setting [1]) and 323 nM against human CB1 receptor.
For `CCOC(=O)[C@H]1C2C=CC(C2)[C@H]1NC(=O)c1nn(Cc2ccccc2)c2c1CCCC2` (stereo partly shown) [compound 276], in that order: 250 nM and 135 nM.
Take `CCOC(=O)[C@@H]1C2C=CC(C2)[C@@H]1NC(=O)c1c2c(nn1Cc1ccccc1)CCCC2` (stereo partly shown) [compound 277]: the IC50 at human CB2 receptor (setting [1]) was determined as 3300 nM; on human CB1 receptor, 1300 nM.
As to `CCOC(=O)[C@H]1C2C=CC(C2)[C@H]1NC(=O)c1nn(C2CCCCC2)c2c1CCCC2` (stereo partly shown) [compound 279], the IC50 is 830 nM on human CB2 receptor (setting [1]) and 3800 nM at human CB1 receptor.
`CCOC(=O)[C@@H]1C2C=CC(C2)[C@@H]1NC(=O)c1nn(C2CCCCC2)c2c1CCCC2` (stereo partly shown) [compound 280]: the figures for the IC50 at human CB2 receptor (setting [1]) and at human CB1 receptor were 679 nM and 3600 nM, respectively.
For the compound `CCOC(=O)[C@H]1C2CCC(C2)[C@H]1NC(=O)C(C)(C)Cc1nn(C2CCCCC2)c2c1CCCC2` (stereo partly shown) [compound 281], the IC50 at human CB2 receptor (setting [1]) is 16500 nM; at human CB1 receptor it was 19700 nM.
Turning to `CCOC(=O)[C@H]1C2CCC(C2)[C@H]1NC(=O)c1nn(C2CCCCC2)c2c1CCCC2OC` (stereo partly shown) [compound 282], the IC50 came out at 3800 nM on human CB2 receptor (setting [1]) and 11800 nM on human CB1 receptor.
For `CC(NC(=O)c1nn(-c2ccc(Cl)cc2Cl)c2c1CCCC2)C12CC3CC(CC(C3)C1)C2` (stereo not shown) [compound 283], the IC50 at human CB2 receptor (setting [1]) and at human CB1 receptor was 100 nM in each case.
Take `CCOC(=O)C1CCCc2c1c(C(=O)N[C@H](C)C1CCCCC1)nn2C1CCCCC1` (stereo partly shown) [compound 285]: the IC50 on human CB2 receptor (setting [1]) amounted to 2400 nM; against human CB1 receptor it was 2900 nM.
Turning to `O=C(NN1CCCCC1)c1nn(-c2ccc(Cl)cc2Cl)c2c1CCCC2` [compound 287], the IC50 on human CB2 receptor (setting [1]) is 2100 nM; against human CB1 receptor, 2500 nM.
For `CCOC(=O)C1CCc2c(c(C(=O)N[C@H](C)C3CCCCC3)nn2Cc2ccccc2)C1` (stereo partly shown) [compound 289], the figures for the IC50 at human CB2 receptor (setting [1]) and against human CB1 receptor were 400 nM and 880 nM, respectively.
The corresponding values for `CCOC(=O)C1CC=CCC1NC(=O)c1nn(C2CCCCC2)c2c1CCCC2` (stereo not shown) [compound 301] are 33 nM and 24 nM.
For `CC(C)N(C(=O)c1nn(C2CCCCC2)c2c1CCCC2)[C@H](C)C1CCCCC1` [compound 329], in that order: 20 nM and 1700 nM.
For `CC(CC1CCCCC1)NC(=O)c1nn(C2CCCCC2)c2c1CCCC2` (stereo not shown) [compound 330], in that order: 30 nM and 1900 nM.
As to `CC(NC(=O)Nc1nn(C2CCCCC2)c2c1CCCC2)C1CCCCC1` (stereo not shown) [compound 334], the IC50 at human CB2 receptor (setting [1]) was determined as 980 nM; at human CB1 receptor, 12500 nM.

Values taken from patent US7452997B2 (priority 2004, dated 2008).
